# According to ChEMBL document CHEMBL2429824, “Computer-assisted design of dual-target anti-HIV-1 compounds” (Med Chem Res, 2013):
# Target: Human immunodeficiency virus type 1 reverse transcriptase (Human immunodeficiency virus 1, UniProt Q72547)
# Assay: Inhibition of HIV-1 reverse transcriptase
# Settings: not given
row,IC50 [µM],SMILES
1,6.31,N#Cc1c(N)cccc1[S+]([O-])c1cc(Cl)ccc1Cl (centres undefined)
2,0.912,COc1cc([S+]([O-])c2cccc(N)c2C#N)cc(C(F)(F)F)c1 (centres undefined)

row,SMILES,IC50 [µM]
1,COc1ccc(S(=O)(=O)c2cccc(N)c2C#N)cc1,13.2

# Test system: Human immunodeficiency virus 1
# Assay: Antiviral activity against HIV-1 infected in human MT-4 cells
# Format: functional, organism-based
# Settings: Human immunodeficiency virus 1, MT4
row,IC50 [µM],SMILES
1,7.94,[N-]=[N+]=N[C@H]1C[C@H](n2cnc3nc(N)nc(N4CCCC4)c32)O[C@@H]1CO
2,5.01,[N-]=[N+]=N[C@H]1C[C@H](n2cnc3nc(N)nc(O)c32)O[C@@H]1CO
3,8.91,COc1nc(N)nc2ncn([C@H]3C[C@H](N=[N+]=[N-])[C@@H](CO)O3)c12
4,22.9,CCOc1nc(N)nc2ncn([C@H]3C[C@H](N=[N+]=[N-])[C@@H](CO)O3)c12
5,8.91,CCCOc1nc(N)nc2ncn([C@H]3C[C@H](N=[N+]=[N-])[C@@H](CO)O3)c12
6,21.9,CC(C)Oc1nc(N)nc2ncn([C@H]3C[C@H](N=[N+]=[N-])[C@@H](CO)O3)c12
7,19.1,CCCCOc1nc(N)nc2ncn([C@H]3C[C@H](N=[N+]=[N-])[C@@H](CO)O3)c12
8,5.01,[N-]=[N+]=N[C@H]1C[C@H](n2cnc3nc(N)nc(OC4CCC4)c32)O[C@@H]1CO
9,28.2,[N-]=[N+]=N[C@H]1C[C@H](n2cnc3nc(N)nc(Oc4ccccc4)c32)O[C@@H]1CO
10,7.94,[N-]=[N+]=N[C@H]1C[C@H](n2cnc3nc(N)nc(OCc4ccccc4)c32)O[C@@H]1CO
11,2,[N-]=[N+]=N[C@H]1C[C@H](n2cnc3nc(N)nc(N)c32)O[C@@H]1CO
12,52.5,CNc1nc(N)nc2ncn([C@H]3C[C@H](N=[N+]=[N-])[C@@H](CO)O3)c12
13,17,CCNc1nc(N)nc2ncn([C@H]3C[C@H](N=[N+]=[N-])[C@@H](CO)O3)c12
14,12,CCCNc1nc(N)nc2ncn([C@H]3C[C@H](N=[N+]=[N-])[C@@H](CO)O3)c12
15,18.2,[N-]=[N+]=N[C@H]1C[C@H](n2cnc3nc(N)nc(NC4CC4)c32)O[C@@H]1CO
16,28.8,CCCCNc1nc(N)nc2ncn([C@H]3C[C@H](N=[N+]=[N-])[C@@H](CO)O3)c12
17,14.1,[N-]=[N+]=N[C@H]1C[C@H](n2cnc3nc(N)nc(NC4CCC4)c32)O[C@@H]1CO
18,112,[N-]=[N+]=N[C@H]1C[C@H](n2cnc3nc(N)nc(NCCc4ccccc4)c32)O[C@@H]1CO
19,20.9,CN(C)c1nc(N)nc2ncn([C@H]3C[C@H](N=[N+]=[N-])[C@@H](CO)O3)c12
20,12,CCN(C)c1nc(N)nc2ncn([C@H]3C[C@H](N=[N+]=[N-])[C@@H](CO)O3)c12
21,11,CCCN(C)c1nc(N)nc2ncn([C@H]3C[C@H](N=[N+]=[N-])[C@@H](CO)O3)c12
22,3.98,CN(c1nc(N)nc2ncn([C@H]3C[C@H](N=[N+]=[N-])[C@@H](CO)O3)c12)C1CC1
23,8.91,[N-]=[N+]=N[C@H]1C[C@H](n2cnc3nc(N)nc(N4CCC4)c32)O[C@@H]1CO
24,6.03,[N-]=[N+]=N[C@H]1C[C@H](n2cnc3nc(N)nc(Cl)c32)O[C@@H]1CO
25,34.7,N#Cc1c(N)cccc1S(=O)(=O)c1cccc(C(F)(F)F)c1
26,0.912,COc1cccc(S(=O)(=O)c2cccc(N)c2C#N)c1
